From ChEMBL document CHEMBL1151757, “Synthesis, radiosynthesis, and biological evaluation of fluorine-18-labeled 2beta-carbo(fluoroalkoxy)-3beta-(3'-((Z)-2-haloethenyl)phenyl)nortropanes: candidate radioligands for in vivo imaging of the serotonin transporter with positron emission tomography” (J Med Chem, 2008)

Columns and labels:
[1] = Ratio of drug uptake in medulla to cerebellum in anesthetized cynomolgus monkey after 1.5 mins postinjection; assay type: ADME, organism-based, Macaca fascicularis; details: in vivo, 0.025 h
[2] = Drug uptake in anesthetized cynomolgus monkey brain cerebellum after 225 mins postinjection; assay type: ADME, organism-based, Macaca fascicularis; details: in vivo, 3.75 h
[3] = test system: Midbrain; assay: Drug uptake in anesthetized cynomolgus monkey brain midbrain after 55 mins postinjection; assay type: ADME, organism-based, Macaca fascicularis; design: unit not given here; details: in vivo
[4] = Drug uptake in anesthetized cynomolgus monkey brain cerebellum after 35 mins postinjection; assay type: ADME, organism-based, Macaca fascicularis; details: in vivo
[5] = test system: Thalamus; assay: Drug uptake in anesthetized cynomolgus monkey brain thalamus after 165 mins postinjection; assay type: ADME, organism-based, Macaca fascicularis; design: unit not given here; details: in vivo, 2.75 h
[6] = test system: Putamen; assay: Drug uptake in anesthetized cynomolgus monkey brain putamen after 145 mins postinjection; assay type: ADME, organism-based, Macaca fascicularis; details: in vivo
[7] = Drug uptake in anesthetized cynomolgus monkey brain frontal lobe after 18.5 mins postinjection; assay type: ADME, organism-based, Macaca fascicularis; details: in vivo
[8] = Drug uptake in anesthetized cynomolgus monkey brain cerebellum after 175 mins postinjection; assay type: ADME, organism-based, Macaca fascicularis; details: in vivo
[9] = test system: Midbrain; assay: Drug uptake in anesthetized cynomolgus monkey brain midbrain after 115 mins postinjection; assay type: ADME, organism-based, Macaca fascicularis; design: unit not given here; details: in vivo
[10] = Ratio of drug uptake in occipital lobe to cerebellum in anesthetized cynomolgus monkey after 0.5 mins postinjection; assay type: ADME, organism-based, Macaca fascicularis; details: in vivo
[11] = test system: Medulla; assay: Drug uptake in anesthetized cynomolgus monkey brain medulla after 235 mins postinjection; assay type: ADME, organism-based, Macaca fascicularis; details: in vivo
[12] = test system: Medulla; assay: Drug uptake in anesthetized cynomolgus monkey brain medulla after 9.5 mins postinjection; assay type: ADME, organism-based, Macaca fascicularis; details: in vivo
[13] = Drug uptake in anesthetized cynomolgus monkey brain occipital lobe after 95 mins postinjection; assay type: ADME, organism-based, Macaca fascicularis; details: in vivo
[14] = test system: Thalamus; assay: Drug uptake in anesthetized cynomolgus monkey brain thalamus after 55 mins postinjection; assay type: ADME, organism-based, Macaca fascicularis; design: unit not given here; details: in vivo
[15] = Ratio of drug uptake in occipital lobe to cerebellum in anesthetized cynomolgus monkey after 4.5 mins postinjection; assay type: ADME, organism-based, Macaca fascicularis; details: in vivo, 0.075 h
[16] = Ratio of drug uptake in frontal lobe to cerebellum in anesthetized cynomolgus monkey after 3.5 mins postinjection; assay type: ADME, organism-based, Macaca fascicularis; details: in vivo
[17] = test system: Caudate; assay: Drug uptake in anesthetized cynomolgus monkey brain caudate after 55 mins postinjection; assay type: ADME, organism-based, Macaca fascicularis, Caudate nucleus; details: in vivo
[18] = Drug uptake in anesthetized cynomolgus monkey brain cerebellum after 195 mins postinjection; assay type: ADME, organism-based, Macaca fascicularis; details: in vivo, 3.25 h
[19] = test system: Midbrain; assay: Drug uptake in anesthetized cynomolgus monkey brain midbrain after 3.5 mins postinjection; assay type: ADME, organism-based, Macaca fascicularis; design: unit not given here; details: in vivo
[20] = Drug uptake in anesthetized cynomolgus monkey brain cerebellum after 6.5 mins postinjection; assay type: ADME, organism-based, Macaca fascicularis; details: in vivo
[21] = test system: Thalamus; assay: Drug uptake in anesthetized cynomolgus monkey brain thalamus after 215 mins postinjection; assay type: ADME, organism-based, Macaca fascicularis; design: unit not given here; details: in vivo
[22] = Ratio of drug uptake in pons to cerebellum in anesthetized cynomolgus monkey after 0.5 mins postinjection; assay type: ADME, organism-based, Macaca fascicularis; details: in vivo
[23] = test system: Midbrain; assay: Drug uptake in anesthetized cynomolgus monkey brain midbrain after 105 mins postinjection; assay type: ADME, organism-based, Macaca fascicularis; design: unit not given here; details: in vivo, 1.75 h
[24] = Drug uptake in anesthetized cynomolgus monkey brain occipital lobe after 35 mins postinjection; assay type: ADME, organism-based, Macaca fascicularis; details: in vivo
[25] = test system: Pons; assay: Drug uptake in anesthetized cynomolgus monkey brain pons after 205 mins postinjection; assay type: ADME, organism-based, Macaca fascicularis; details: in vivo
[26] = Drug uptake in anesthetized cynomolgus monkey brain occipital lobe after 225 mins postinjection; assay type: ADME, organism-based, Macaca fascicularis; details: in vivo, 3.75 h
[27] = Drug uptake in anesthetized cynomolgus monkey brain occipital lobe after 85 mins postinjection; assay type: ADME, organism-based, Macaca fascicularis; details: in vivo
[28] = test system: Caudate; assay: Drug uptake in anesthetized cynomolgus monkey brain caudate after 205 mins postinjection; assay type: ADME, organism-based, Macaca fascicularis, Caudate nucleus; details: in vivo
[29] = Octanol-water partition coefficient, log P at pH 7.4 by shake-flask method; assay type: physicochemical
[30] = test system: Putamen; assay: Drug uptake in anesthetized cynomolgus monkey brain putamen after 0.5 mins postinjection; assay type: ADME, organism-based, Macaca fascicularis; details: in vivo
[31] = Ratio of drug uptake in midbrain to cerebellum in anesthetized cynomolgus monkey after 145 mins postinjection; assay type: ADME, organism-based, Macaca fascicularis; details: in vivo
[32] = Ratio of drug uptake in putamen to cerebellum in anesthetized cynomolgus monkey after 9.5 mins postinjection; assay type: ADME, organism-based, Macaca fascicularis; details: in vivo
[33] = test system: Medulla; assay: Drug uptake in anesthetized cynomolgus monkey brain medulla after 65 mins postinjection; assay type: ADME, organism-based, Macaca fascicularis; details: in vivo
[34] = test system: Pons; assay: Drug uptake in anesthetized cynomolgus monkey brain pons after 15.5 mins postinjection; assay type: ADME, organism-based, Macaca fascicularis; details: in vivo
[35] = Drug uptake in anesthetized cynomolgus monkey brain frontal lobe after 75 mins postinjection; assay type: ADME, organism-based, Macaca fascicularis; details: in vivo, 1.25 h
[36] = Drug uptake in anesthetized cynomolgus monkey brain frontal lobe after 165 mins postinjection; assay type: ADME, organism-based, Macaca fascicularis; details: in vivo, 2.75 h
[37] = Drug uptake in anesthetized cynomolgus monkey brain occipital lobe after 22.5 mins postinjection; assay type: ADME, organism-based, Macaca fascicularis; details: in vivo, 0.375 h
[38] = Drug uptake in anesthetized cynomolgus monkey brain occipital lobe after 27.5 mins postinjection; assay type: ADME, organism-based, Macaca fascicularis; details: in vivo
[39] = test system: Medulla; assay: Drug uptake in anesthetized cynomolgus monkey brain medulla after 105 mins postinjection; assay type: ADME, organism-based, Macaca fascicularis; details: in vivo, 1.75 h
[40] = Ratio of drug uptake in putamen to cerebellum in anesthetized cynomolgus monkey after 45 mins postinjection; assay type: ADME, organism-based, Macaca fascicularis; details: in vivo, 0.75 h
[41] = Ratio of drug uptake in putamen to cerebellum in anesthetized cynomolgus monkey after 35 mins postinjection; assay type: ADME, organism-based, Macaca fascicularis; details: in vivo
[42] = Drug uptake in anesthetized cynomolgus monkey brain frontal lobe after 12.5 mins postinjection; assay type: ADME, organism-based, Macaca fascicularis; details: in vivo
[43] = test system: Thalamus; assay: Drug uptake in anesthetized cynomolgus monkey brain thalamus after 15.5 mins postinjection; assay type: ADME, organism-based, Macaca fascicularis; design: unit not given here; details: in vivo
[44] = test system: Caudate; assay: Drug uptake in anesthetized cynomolgus monkey brain caudate after 1.5 mins postinjection; assay type: ADME, organism-based, Macaca fascicularis, Caudate nucleus; details: in vivo, 0.025 h
[45] = Drug uptake in anesthetized cynomolgus monkey brain occipital lobe after 0.5 mins postinjection; assay type: ADME, organism-based, Macaca fascicularis; details: in vivo
[46] = Ratio of drug uptake in occipital lobe to cerebellum in anesthetized cynomolgus monkey after 105 mins postinjection; assay type: ADME, organism-based, Macaca fascicularis; details: in vivo, 1.75 h
[47] = test system: Midbrain; assay: Drug uptake in anesthetized cynomolgus monkey brain midbrain after 18.5 mins postinjection; assay type: ADME, organism-based, Macaca fascicularis; design: unit not given here; details: in vivo
[48] = Drug uptake in anesthetized cynomolgus monkey brain cerebellum after 15.5 mins postinjection; assay type: ADME, organism-based, Macaca fascicularis; details: in vivo
[49] = test system: Putamen; assay: Drug uptake in anesthetized cynomolgus monkey brain putamen after 85 mins postinjection; assay type: ADME, organism-based, Macaca fascicularis; design: unit not given here; details: in vivo
[50] = Ratio of drug uptake in occipital lobe to cerebellum in anesthetized cynomolgus monkey after 175 mins postinjection; assay type: ADME, organism-based, Macaca fascicularis; details: in vivo
[51] = test system: Medulla; assay: Drug uptake in anesthetized cynomolgus monkey brain medulla after 85 mins postinjection; assay type: ADME, organism-based, Macaca fascicularis; details: in vivo
[52] = test system: Midbrain; assay: Drug uptake in anesthetized cynomolgus monkey brain midbrain after 165 mins postinjection; assay type: ADME, organism-based, Macaca fascicularis; details: in vivo, 2.75 h
[53] = test system: Thalamus; assay: Drug uptake in anesthetized cynomolgus monkey brain thalamus after 135 mins postinjection; assay type: ADME, organism-based, Macaca fascicularis; design: unit not given here; details: in vivo, 2.25 h
[54] = test system: Medulla; assay: Drug uptake in anesthetized cynomolgus monkey brain medulla after 225 mins postinjection; assay type: ADME, organism-based, Macaca fascicularis; details: in vivo, 3.75 h
[55] = Ratio of drug uptake in putamen to cerebellum in anesthetized cynomolgus monkey after 165 mins postinjection; assay type: ADME, organism-based, Macaca fascicularis; details: in vivo, 2.75 h
[56] = test system: Midbrain; assay: Drug uptake in anesthetized cynomolgus monkey brain midbrain after 235 mins postinjection; assay type: ADME, organism-based, Macaca fascicularis; details: in vivo
[57] = test system: Medulla; assay: Drug uptake in anesthetized cynomolgus monkey brain medulla after 12.5 mins postinjection; assay type: ADME, organism-based, Macaca fascicularis; details: in vivo
[58] = Ratio of drug uptake in thalamus to cerebellum in anesthetized cynomolgus monkey after 155 mins postinjection; assay type: ADME, organism-based, Macaca fascicularis; details: in vivo
[59] = test system: Midbrain; assay: Drug uptake in anesthetized cynomolgus monkey brain midbrain after 2.5 mins postinjection; assay type: ADME, organism-based, Macaca fascicularis; design: unit not given here; details: in vivo
[60] = Drug uptake in anesthetized cynomolgus monkey brain cerebellum after 18.5 mins postinjection; assay type: ADME, organism-based, Macaca fascicularis; details: in vivo
[61] = test system: Pons; assay: Drug uptake in anesthetized cynomolgus monkey brain pons after 195 mins postinjection; assay type: ADME, organism-based, Macaca fascicularis; details: in vivo, 3.25 h
[62] = test system: Caudate; assay: Drug uptake in anesthetized cynomolgus monkey brain caudate after 35 mins postinjection; assay type: ADME, organism-based, Macaca fascicularis, Caudate nucleus; details: in vivo
[63] = Ratio of drug uptake in midbrain to cerebellum in anesthetized cynomolgus monkey after 185 mins postinjection; assay type: ADME, organism-based, Macaca fascicularis; details: in vivo
[64] = Ratio of drug uptake in pons to cerebellum in anesthetized cynomolgus monkey after 6.5 mins postinjection; assay type: ADME, organism-based, Macaca fascicularis; details: in vivo
[65] = Drug uptake in anesthetized cynomolgus monkey brain cerebellum after 115 mins postinjection; assay type: ADME, organism-based, Macaca fascicularis; details: in vivo
[66] = Ratio of drug uptake in midbrain to cerebellum in anesthetized cynomolgus monkey after 27.5 mins postinjection; assay type: ADME, organism-based, Macaca fascicularis; details: in vivo
[67] = test system: Medulla; assay: Drug uptake in anesthetized cynomolgus monkey brain medulla after 75 mins postinjection; assay type: ADME, organism-based, Macaca fascicularis; details: in vivo, 1.25 h

O=C(OCC[18F])C1C2CCC(CC1c1cccc(/C=C\Br)c1)N2 (configuration not stated)
Ratio [1]: 1.3 | Drug uptake [2]: 1.64 | Drug uptake [3]: 4.98 | Drug uptake [4]: 3.84 | Drug uptake [5]: 3.64 | Drug uptake [6]: 4.21 | Drug uptake [7]: 2.39 | Drug uptake [8]: 2.03 | Drug uptake [9]: 4.78 | Ratio [10]: 1.6 | Drug uptake [11]: 2.72 | Drug uptake [12]: 3.76 | Drug uptake [13]: 3.16 | Drug uptake [14]: 4.38 | Ratio [15]: 0.7 | Ratio [16]: 0.5 | Drug uptake [17]: 4.1 | Drug uptake [18]: 1.79 | Drug uptake [19]: 0.95 | Drug uptake [20]: 2.75 | Drug uptake [21]: 2.92 | Ratio [22]: 3.8 | Drug uptake [23]: 4.87 | Drug uptake [24]: 3.43 | Drug uptake [25]: 3.51 | Drug uptake [26]: 1.95 | Drug uptake [27]: 3.31 | Drug uptake [28]: 2.92 | logD [29]: 1.4 | Drug uptake [30]: 0.01 | Ratio [31]: 2 | Ratio [32]: 1.1 | Drug uptake [33]: 4.81 | Drug uptake [34]: 3.73 | Drug uptake [35]: 2.86 | Drug uptake [36]: 2.38 | Drug uptake [37]: 3.14 | Drug uptake [38]: 3.28 | Drug uptake [39]: 4.31 | Ratio [40]: 1.3 | Ratio [41]: 1.3 | Drug uptake [42]: 2.27 | Drug uptake [43]: 3.29 | Drug uptake [44]: 0.04 | Drug uptake [45]: 0.01 | Ratio [46]: 1.1 | Drug uptake [47]: 4.16 | Drug uptake [48]: 3.57 | Drug uptake [49]: 4.94 | Ratio [50]: 1.2 | Drug uptake [51]: 4.73 | Drug uptake [52]: 4.28 | Drug uptake [53]: 4.03 | Drug uptake [54]: 2.67 | Ratio [55]: 1.8 | Drug uptake [56]: 3.76 | Drug uptake [57]: 4.2 | Ratio [58]: 1.7 | Drug uptake [59]: 0.55 | Drug uptake [60]: 3.59 | Drug uptake [61]: 3.63 | Drug uptake [62]: 3.56 | Ratio [63]: 2.2 | Ratio [64]: 1 | Drug uptake [65]: 2.78 | Ratio [66]: 1.2 | Drug uptake [67]: 4.73
